Each structure is given as a SMILES string.

The data set in a line: gradient 5% acetonitrile 3 min, to 50% in 2 min, to 85% in 15 min, held 3 min, 100 µL/min. The conditions noted are these: column: Zorbax Extend-C18 2.1 x 50 mm; eluents: water / acetonitrile, 0.1% formic acid. In outline:
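Each retention time is based on an adduct peak selected computationally and verified by manual inspection. Measurements used HPLC–quadrupole time-of-flight mass spectrometry in positive and negative ionization mode on mixtures of ~100 pure standards. Chromatography ran on a Zorbax Extend-C18 column (2.1 × 50 mm, 1.8 μm) at 100 μL/min with water and acetonitrile, each containing 0.1% formic acid, and dead and dwell volumes of 40 μL and 900 μL.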
`COc1ccc(-c2noc(-c3ncn4c3COC(c3ccc(F)cc3)C4)n2)c(OC)c1` (centres undefined) came in with an RP-LC retention time of 954 s.
As for `O=C1C(=O)N(C2CCN(S(=O)(=O)c3ccc(F)c(Cl)c3)CC2)CCN1Cc1ccccc1`, the RP-LC retention time is 862 s.
For `Cc1oc(-c2cccc(Cl)c2)nc1Cn1nnc(-c2nc(-c3cccc(F)c3)no2)c1C` the value was 1360 s; for `C[C@@H]1CN(C(=O)c2ccoc2)C[C@H]1c1nc(-c2ccncc2)no1`, 678 s; for `CCOc1ccc(S(=O)(=O)N2CCc3c(c(-c4nnc(-c5ccccc5F)o4)nn3C)C2)cc1`, 945 s.
The figure for `CCn1cc(CCNC(=O)c2ccccc2Cl)c2cccnc21` is 691 s; for `Cc1ccc(C(=O)Nc2cnc(N3CCCCC3)nc2)s1` it is 822 s; for `COc1ccc(-c2nnc(N3CCC(C(=O)NC(C)c4ccccn4)CC3)o2)cc1` (centres undefined) it is 621 s.
For `COc1ccccc1N1CCN(c2cc(SCC(=O)NC(C)CCc3ccccc3)ncn2)CC1` (centres undefined) the value was 1020 s; for `CCc1nnc2ccc(NCC3CCCO3)nn12` (centres undefined), 646 s; for `O=C(Nc1ncc([N+](=O)[O-])s1)c1ccc([N+](=O)[O-])c(Cl)c1`, 946 s.
`COc1ccc(-c2ccnc3nc(Cc4ccc(F)cc4)nn23)c(F)c1` showed an RP-LC retention time of 906 s.
For `COc1nc2ccccc2nc1N1CCCC(C(=O)Nc2ccccc2F)C1` (centres undefined) the value was 1140 s; for `CCOc1ccccc1N1CCN(c2cc(C(=O)O)c3cc(NC(=O)C(C)C)ccc3n2)CC1`, 684 s; for `Cc1ccc(F)cc1NC(=O)Cn1nc(N(C)C)c2ccccc2c1=O`, 860 s.
`Cc1ccc(NC(=O)N2CCOCCNC(=O)[C@H]3CCCC[C@H]32)cc1C`: the RP-LC retention time stood at 829 s.
Regarding `Clc1cccc(-n2ncc3c(SCc4cccnc4)ncnc32)c1`, the RP-LC retention time stood at 820 s.
On to `CCS(=O)(=O)N1CCCC(n2c(C)cnc2-c2ccncc2)C1` (centres undefined), for which the RP-LC retention time came out at 565 s.
The figure for `Cc1cc(NC(=O)c2c(O)c3cccnc3n(-c3ccccc3)c2=O)ccc1F` is 1160 s; for `C=CCNC(=O)c1nc(C(=O)N2CCCCCC2)cs1` it is 733 s.
The figure for `COc1ccc(NC(=O)Cn2c(=O)c3cc(-c4ccco4)nn3c3ncccc32)c(OC)c1` is 797 s; for `Cc1ccc(-n2nc(N3CCN(C(=O)Nc4ccccc4)CC3)ccc2=O)cc1` it is 780 s; for `Cc1cc(C)c(C)c(S(=O)(=O)N2CCCC2c2nc(-c3ccc(F)cc3)no2)c1C` (centres undefined) it is 1310 s.
For `COC(=O)CNC(=O)N(C)Cc1nc2cc(C(=O)N3CCCC3)ccc2n1C` the value was 566 s; for `Cc1cc(C)c2c(N3CCOCC3)nc(C(=O)NCCN3CCCCCC3)nc2n1`, 555 s.
Compound `O=C(NC1CCN(c2cc(-c3ccc(F)cc3)[nH]n2)C1)c1ccccc1Br` (centres undefined) showed an RP-LC retention time of 668 s.
In the case of `CN(C)C(=O)C1c2ccccc2CCN1CC(=O)N1CCN(c2ccc(Cl)cc2)CC1` (centres undefined), the RP-LC retention time worked out at 742 s.
The compound `CCC(C)NC(=O)c1cnn(-c2cc(-c3nc(C(C)(C)C)no3)ccn2)c1C` (centres undefined) registered an RP-LC retention time of 711 s.
The figure for `COCCc1noc(-c2ccc(=O)n(CC(=O)Nc3cc(F)ccc3F)c2)n1` is 728 s; for `O=[N+]([O-])c1cccnc1Oc1cccnc1` it is 716 s; for `Cc1ccc(-c2nc(-c3ccc4c(c3)oc(=O)n4C)no2)cc1C` it is 1180 s.
The compound `CCCN1CCCCc2cc(C(=O)NC(C)(C)C)sc21` came in with an RP-LC retention time of 1200 s.
In turn, `Cc1ccc(-c2nnc(-c3cccc(S(=O)(=O)NC(C)(C)C)c3)o2)cc1` displayed an RP-LC retention time of 1030 s.
Consider `COc1ccc(-c2noc(-c3nn(-c4ccc(C)c(C)c4)ccc3=O)n2)cc1OC`, for which the RP-LC retention time was determined as 886 s.
As for `COc1cc(OC)c(NC(=O)N2c3ccccc3CC2c2nc(C3CC3)no2)cc1Cl` (centres undefined), the RP-LC retention time was 1120 s.
For `O=C(Nc1cccc(F)c1)C1CCCN(c2nc3ccsc3c(=O)n2Cc2ccc(F)cc2)C1` (centres undefined), the RP-LC retention time was 1050 s.
For `CC(C)C(=O)NCCc1nc2cccnc2n1C` the value was 545 s; for `COCc1cc(=O)n(CC(=O)Nc2cc(Cl)ccc2C)c(N2CCOCC2)n1`, 895 s; for `O=C(Nc1nnc(-c2ccco2)o1)c1ccc2c(c1)CCCC2`, 775 s.
Turning to `CCC(C)NC(=O)c1cc(NC(C)=O)cc2nc(C)ccc12` (centres undefined), the RP-LC retention time was found to be 575 s.
Compound `Cc1cccc(NC(=O)Cn2c(-c3cnccn3)nc(C)c(C)c2=O)c1C` gave an RP-LC retention time of 743 s.
The figure for `Nc1ccc(-c2ccc3ccccc3n2)cc1` is 619 s; for `COc1cccc(Cn2c(=O)c3sccc3n(Cc3nc(-c4ccc(F)c(Cl)c4)no3)c2=O)c1` it is 1170 s.
For the compound `COc1ccc(N2CCN(c3nccc(-n4nc(C)cc4C)n3)CC2)cc1`, the RP-LC retention time worked out at 956 s.
The compound `Cc1onc(-c2ccccc2Cl)c1C(=O)Nc1nc(-c2ccc([N+](=O)[O-])cc2)cs1` returned an RP-LC retention time of 1100 s.
For `CCOC(=O)c1c(C)c(CCC(=O)NC(C)c2ccccc2)n(C)c1C` (centres undefined) the value was 904 s; for `O=C(CSc1nnc2sc3ccccc3n12)N1CCOCC1`, 614 s; for `CCC1CN(C(=O)N2CCC(C(=O)NCCCN3CCCCCC3)CC2)c2ccccc2O1` (centres undefined), 663 s.
`c1ccc(CCCCN2CCC(c3ccccc3)CC2)cc1` displayed an RP-LC retention time of 851 s.
The figure for `CC1CCCN(C(=O)C2CCN(CCc3c[nH]c4ncccc34)CC2)C1` (centres undefined) is 586 s; for `CC(C)NCc1ccc(-c2ccccc2)o1` it is 612 s.
For `CC(=O)Nc1ccc(S(=O)(=O)N2CCc3c(c(-c4nnc(-c5ccc(F)cc5)o4)nn3C)C2)cc1` the value was 783 s.
`O=C(CS(=O)Cc1cnn(-c2ccccc2)c1-n1cccc1)NCc1cccc(F)c1` (centres undefined) showed an RP-LC retention time of 838 s.
For `O=C(CN1CC=C(c2cnn(-c3ccccc3)c2)CC1)N1CCN(Cc2ccc3c(c2)OCO3)CC1` the value was 591 s; for `O=c1n(Cc2cc(F)cc(F)c2)nc2ccc(S(=O)(=O)N3CCCCC3)cn12`, 960 s; for `Cc1nn(C)c(C)c1C(=O)N1CC(n2cc(COc3ccc(F)cc3)nn2)C1`, 712 s.
Compound `COc1ccc(C)c2sc(NCCCn3ccnc3)nc12` displayed an RP-LC retention time of 552 s.
For `COc1ccc(OC)c(CN2CCc3nc(N4CCOCC4)ncc3C2)c1` the value was 607 s; for `O=c1onc2cnc3ccccc3n12`, 822 s; for `Cc1ccc(C)c(CN2CCCN(c3ncccc3-c3nc(C(C)C)no3)CC2)c1`, 790 s.
The figure for `OC[C@@H]1CN(Cc2cccc(OC(F)(F)F)c2)C[C@H]1c1ccncc1` is 570 s; for `COC(=O)c1cccc(C(=O)N2CCN(c3ccccc3F)CC2)n1` it is 777 s.
For `COc1cccc(NC(=O)Cn2nc3c(N(C)C4CCCCC4)nccn3c2=O)c1` the value was 745 s; for `CCNC(=O)Nc1ccc(OCC(=O)NC2CCN(Cc3ccccc3)CC2)nc1`, 584 s.
`O=C(c1csc(-c2ccc(N3CCCC3)nc2)n1)N1CCN(c2ccccn2)CC1`: the RP-LC retention time came to 566 s.
The figure for `COc1ccc(NC(=O)NC2CCN(c3ccc(F)cc3)C2=O)cc1OC` (centres undefined) is 722 s.
The figure for `CCCNC(=O)C1CCN(c2ccc(SCC(=O)Nc3cccc(C(F)(F)F)c3)nn2)CC1` is 723 s; for `Cc1cc(-c2nnc(C3CCC3)o2)c(C)n1CC(=O)Nc1ccc(F)c(F)c1` it is 915 s; for `COc1ccc2cccc(CCNC(C)=O)c2c1` it is 696 s.
For `CCn1nccc1-c1cccc(-c2noc(-c3ccc(F)c(F)c3)n2)c1` the value was 1270 s.
For the compound `Cc1cc(C)cc(S(=O)(=O)N2CCC3(CC2)NCCN=C3NCc2ccc(F)cc2)c1`, the RP-LC retention time worked out at 753 s.
Turning to `CCc1nn2c(CNC(=O)c3ccc(C(F)(F)F)cc3)c(-c3ccccc3)nc2s1`, the RP-LC retention time is 1020 s.
The figure for `CS(=O)(=O)N1CCN(Cc2nnnn2-c2ccc(Cl)cc2)CC1` is 719 s; for `Cc1ccc(Nc2nc(-c3ccc(C)cc3)c(C)s2)cc1` it is 1180 s; for `CC(=O)Nc1ccc(-c2noc(C3CCCN(C(=O)CCC4CCCC4)C3)n2)cc1` (centres undefined) it is 923 s.
The figure for `COc1ccccc1CNC(=O)C1CCN(c2cc(N3CCSCC3)ncn2)CC1` is 717 s; for `CO[C@@H]1[C@@H](OC(N)=O)[C@H](O)[C@H](Oc2ccc3c(O)c(NC(=O)c4ccc(O)c(CC=C(C)C)c4)c(=O)oc3c2C)OC1(C)C` it is 979 s; for `CN(CC1(C)CCOCC1)S(=O)(=O)c1cc(F)ccc1F` it is 614 s.
`Cc1nc2cc(-c3noc(-c4ccc5c(c4)OCO5)n3)ccc2o1` had an RP-LC retention time of 1050 s.

The record behind these values is the METLIN SMRT retention time set (Domingo-Almenara et al. 2019).
